Assays:
Escherichia coli [1] = experiment: single molecule DNA damage analysis (visualization of damaged lesions in genomic DNA of agarose-embedded cells); assay type: cell-based, Escherichia coli K-12 MG1655
Description: Escherichia coli K-12 MG1655 cells were grown in 5 mL LB broths in a shaking incubator (220 rpm) at 37° C. for six hours. Bacterial cells were harvested by centrifugation (10,000×g, 10 min) and washed twice with 0.85% NaCl solution and re-suspended in the same solution. The cell-suspension was then diluted such that OD600 was approximately between 0.5 and 1 and used for subsequent reactions.
Bacterial suspension (OD600=0.5) was mixed with 2% LGT agarose solution and then dispensed as 20 μL droplets on a surface and solidified in the refrigerator (4° C.) for 10 minutes. […] After incubation, all these plugs were washed in 0.85% NaCl solution for half an hour.
After alcohol treatment, bacteria embedded agarose plugs were subjected to lysis with proteinase K solution (50 units in 500 μL, Tris 10 mM and EDTA 1 mM, pH 8.0 (1×TE)) at 42° C. for 150 min. The plugs were then washed in 1 mL 1×TE overnight. For removing oxidized base adducts, agarose plugs were incubated with a mixture of 10 units Fpg, 10 units Nfo, and 20 units Nei in NEB buffer2 (50 mM NaCl, 10 mM Tris-HCl, 10 mM MgCl2, 1 mM DTT, pH 7.9) at 37° C. for one hour. After enzyme treatment, the plugs were washed twice with 1 mL 1×TE buffer for half-an-hour. The plugs were then incubated with 5 units DNA Polymerase I, 1 mM AlexaFluor-647 labeled dUTP and dNTP mix (1 mM dATP, 1 mM dGTP, 100 μM dCTP, 100 μM dTTP) in the polymerase reaction buffer (50 mM Tris-HCl, 1 mM DTT, 10 mM MgCl2, pH 7.5) at 37° C. for one hour to label gaps or nicks. […] After nick translation, the plugs were washed three times in 1 mL 1×TE buffer for one hour. Then agarose plugs were melted in 400 μL 1×TE buffer at 65° C. for 15 min and stained with 1 μM YOYO-1.
A PDMS device was mounted on the positively charged surface. Then, the solution of DNA molecules melted from low gelling temperature agarose plug was loaded onto the entrance of the microfluidic channels. While the solution moved through the microchannels by capillary action, DNA molecules were elongated and deposited on the positively charged surface.

Escherichia coli [2] = conditions: 30 minutes incubation in ethanol

CCO [ethanol, Ethanol]
number of DNA lesions corresponding to 17% ethanol (Escherichia coli [1]; 17% ethanol, 30 minutes, glycosylase mix): 16.4 lesions/genome | DNA length per one lesion at 17% ethanol (Escherichia coli [1]; 17% ethanol, 30 minutes, glycosylase mix, one lesion per ~300 kb): ~300 kb | increase in number of DNA lesions with every 1% increase in ethanol concentration (Escherichia coli [1]; E. coli embedded agarose plug, 30 minutes incubation, ethanol 5%-40%, glycosylase mix (Fpg, Nfo, Nei), linear fit r^2=0.98): 0.88 lesions/genome | labels per genome, ethanol incubation without glycosylase treatment (Escherichia coli [1]; without glycosylase treatment (triangles in FIG. 2A), 30 minutes incubation): 1.1-1.4 labels per genome | ethanol concentration above which bacterial cells could not survive (Escherichia coli [2]): above 17%

— patent publication US20170369928A1, “METHOD FOR EVALUATING DNA DAMAGE FROM ANALYTE” (SOGANG UNIVERSITY RESEARCH FOUNDATION, priority 2016, published 2017)
